Assay results taken from article PMC4845012, “Unique behavior of Trypanosoma cruzi mevalonate kinase: A conserved glycosomal enzyme involved in host cell invasion and signaling” (Scientific Reports, 2016).
Several values for one entry are separate records, joined by “and”; a condition that tells them apart may be missing. Identical values can stand only once.

What was measured:
rTcMVK = biological target: T1, rTcMVK (Trypanosoma cruzi, UniProt A0A165UDJ0); experiment: coupled pyruvate kinase / lactate dehydrogenase assay, NADH at […] nm; type: biochemical; conditions: MgCl2 […], glycine pH […] °C, dimer
T1 construct: gene MVK; N-terminal His6 tag (pET-28a, BamHI/HindIII), E. coli BL21; native 34 kDa; active dimer fraction from gel filtration
T1 sequence (A0A165UDJ0 43-364 limits assumed): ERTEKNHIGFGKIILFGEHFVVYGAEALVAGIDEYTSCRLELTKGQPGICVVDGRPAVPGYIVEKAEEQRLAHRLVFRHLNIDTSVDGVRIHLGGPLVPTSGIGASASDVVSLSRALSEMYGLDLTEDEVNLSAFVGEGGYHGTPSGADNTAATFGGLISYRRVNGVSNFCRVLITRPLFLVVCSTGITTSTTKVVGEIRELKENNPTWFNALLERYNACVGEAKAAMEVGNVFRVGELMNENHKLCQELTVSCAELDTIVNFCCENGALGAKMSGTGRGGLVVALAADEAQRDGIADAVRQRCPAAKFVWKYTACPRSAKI

[1] = biological target: recombinant Trypanosoma cruzi mevalonate kinase (rTcMVK) (Trypanosoma cruzi (G strain)); experiment: SEC; Superdex 200 High Load 16/60 prep-grade, glycine buffer pH 9.0 with 0.15 M NaCl, after Ni-NTA; separates the oligomerization states of rTcMVK

CC(O)(CCO)CC(=O)O (racemic) [(RS)-mevalonic acid]
coupled pyruvate kinase / lactate dehydrogenase assay, NADH at 340 nm (rTcMVK; ATP […], racemic mevalonate […] from hydrolysed lactone): In vitro assays using synthetic mevalonic acid confirmed enzymatic activity of recombinant TcMVK

Nc1ncnc2c1ncn2[C@@H]1O[C@H](COP(=O)(O)OP(=O)(O)OP(=O)(O)O)[C@@H](O)[C@H]1O [ATP]
coupled pyruvate kinase / lactate dehydrogenase assay, NADH at 340 nm (rTcMVK; mevalonate […], blank without ATP): Blank assays were performed in the absence of ATP.

recombinant Trypanosoma cruzi mevalonate kinase (rTcMVK) (enzyme)
stoichiometry N [1]: 4 and 2
